According to patent US7973061B2, “Anaplastic lymphoma kinase modulators and methods of use” (Exelixis, Inc., priority 2004, dated 2011):
pIC50: −log10 of the molar value.

Target: T1, ALK (baculovirus expressed human ALK kinase domain F1098-K1410) (Homo sapiens, UniProt Q9UM73)
T1 construct: human ALK kinase domain F1098-K1410; made in house
Assay: biochemical
Conditions: 1 μM ATP, 4 μM poly-AEKY, 12 nM ALK, 2 hours at ambient temperature; read-out: ALK IC50
Summary of the method: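 Inhibitors were tested at 10 concentrations, and IC50 was derived from a sigmoidal fit (Min, Max, Hill slope). Kinase activity was measured as percent ATP left after a 2 h reaction at room temperature, detected by luciferase-luciferin chemiluminescence. The ATP level was set close to KM for the ALK kinase domain F1098-K1410.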

T1 sequence (Q9UM73 1098-1410): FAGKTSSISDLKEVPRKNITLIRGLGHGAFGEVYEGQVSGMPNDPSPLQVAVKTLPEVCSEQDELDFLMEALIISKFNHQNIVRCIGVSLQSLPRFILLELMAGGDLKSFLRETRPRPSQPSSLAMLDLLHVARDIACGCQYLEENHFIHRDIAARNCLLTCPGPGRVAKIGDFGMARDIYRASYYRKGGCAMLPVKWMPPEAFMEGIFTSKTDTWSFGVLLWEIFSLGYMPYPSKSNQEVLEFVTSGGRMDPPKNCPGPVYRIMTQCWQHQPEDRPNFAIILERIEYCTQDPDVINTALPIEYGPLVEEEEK

Structure (SMILES) | pIC50
CCCCCC(C)NC(=O)c1csc(CNC(=O)COc2ccc(OC(F)(F)F)cc2)n1 (centres unmarked) [Entry 179, N-(1-methylhexyl)-2-({[({4-[(trifluoromethyl)oxy]phenyl}oxy)acetyl]amino}methyl)-1,3-thiazole-4-carboxamide] | 6.30 to 7.30
O=C(COc1ccc(OC(F)(F)F)cc1)NCc1nc(C(=O)NCCc2cccc(C(F)(F)F)c2)co1 [Entry 181, 2-({[({4-[(trifluoromethyl)oxy]phenyl}oxy)acetyl]amino}methyl)-N-{2-[3-(trifluoromethyl)phenyl]ethyl}-1,3-oxazole-4-carboxamide] | 6.30 to 7.30
O=C(COc1ccc(OC(F)(F)F)cc1)NCc1nc(C(=O)NC2CCc3ccccc32)cs1 (centres unmarked) [Entry 182, N-(2,3-dihydro-1H-inden-1-yl)-2-({[({4-[(trifluoromethyl)oxy]phenyl}oxy)acetyl]amino}methyl)-1,3-thiazole-4-carboxamide] | 6.30 to 7.30
COc1ccc([C@H](C)NC(=O)c2csc(CNC(=O)COc3ccc(OC(F)(F)F)cc3)n2)cc1 [Entry 183, N-{(1S)-1-[4-(methyloxy)phenyl]ethyl}-2-({[({4-[(trifluoromethyl)oxy]phenyl}oxy)acetyl]amino}methyl)-1,3-thiazole-4-carboxamide] | 6.30 to 7.30
CCOc1ccc(NC(=O)NCc2nc(C(=O)NCCc3cccc(Cl)c3)cs2)cc1 [Entry 184, N-[2-(3-chlorophenyl)ethyl]-2-{[({[4-(ethyloxy)phenyl]amino}carbonyl)amino]methyl}-1,3-thiazole-4-carboxamide] | 6.30 to 7.30
O=C(COc1ccc(OC(F)(F)F)cc1)NCc1nc(C(=O)NCc2ccc(F)c(F)c2)cs1 [Entry 185, N-[(3,4-difluorophenyl)methyl]-2-({[({4-[(trifluoromethyl)oxy]phenyl}oxy)acetyl]amino}methyl)-1,3-thiazole-4-carboxamide] | 6.30 to 7.30
CSc1ccccc1CNC(=O)c1coc(CNC(=O)COc2ccc(OC(F)(F)F)cc2)n1 [Entry 186, N-{[2-(methylthio)phenyl]methyl}-2-({[({4-[(trifluoromethyl)oxy]phenyl}oxy)acetyl]amino}methyl)-1,3-oxazole-4-carboxamide] | 6.30 to 7.30
NC(=O)[C@H](Cc1ccccc1)NC(=O)c1csc(CNC(=O)COc2ccc(OC(F)(F)F)cc2)n1 [Entry 188, Nalpha-{[2-({[({4-[(trifluoromethyl)oxy]phenyl}oxy)acetyl]amino}methyl)-1,3-thiazol-4-yl]carbonyl}-L-phenylalaninamide] | 6.30 to 7.30
O=C(COc1ccc(OC(F)(F)F)cc1)NCc1nc(C(=O)NCc2ccccn2)cs1 [Entry 190, N-(pyridin-2-ylmethyl)-2-({[({4-[(trifluoromethyl)oxy]phenyl}oxy)acetyl]amino}methyl)-1,3-thiazole-4-carboxamide] | 6.30 to 7.30
O=C(COc1ccc(OC(F)(F)F)cc1)NCc1nc(C(=O)NCc2ccc(F)c(Cl)c2)cs1 [Entry 191, N-[(3-chloro-4-fluorophenyl)methyl]-2-({[({4-[(trifluoromethyl)oxy]phenyl}oxy)acetyl]amino}methyl)-1,3-thiazole-4-carboxamide] | 6.30 to 7.30
CCCCCCN(C)C(=O)c1csc(CNC(=O)COc2ccc(OC(F)(F)F)cc2)n1 [Entry 193, N-hexyl-N-methyl-2-({[({4-[(trifluoromethyl)oxy]phenyl}oxy)acetyl]amino}methyl)-1,3-thiazole-4-carboxamide] | 6.30 to 7.30
O=C(COc1ccc(OC(F)(F)F)cc1)NCc1nc(C(=O)NCc2ccccc2)cs1 [Entry 194, N-(phenylmethyl)-2-({[({4-[(trifluoromethyl)oxy]phenyl}oxy)acetyl]amino}methyl)-1,3-thiazole-4-carboxamide] | 6.30 to 7.30
CSCCNC(=O)c1csc(CNC(=O)COc2ccc(OC(F)(F)F)cc2)n1 [Entry 195, N-[2-(methylthio)ethyl]-2-({[({4-[(trifluoromethyl)oxy]phenyl}oxy)acetyl]amino}methyl)-1,3-thiazole-4-carboxamide] | 6.30 to 7.30
COc1ccccc1CNC(=O)c1csc(CNC(=O)c2cccnc2Oc2ccc(Cl)cc2)n1 [Entry 198, 2-[(4-chlorophenyl)oxy]-N-({4-[({[2-(methyloxy)phenyl]methyl}amino)carbonyl]-1,3-thiazol-2-yl}methyl)pyridine-3-carboxamide] | 6.30 to 7.30
O=C(COc1ccc(OC(F)(F)F)cc1)NCc1nc(C(=O)NCCc2ccc(F)cc2)co1 [Entry 201, N-[2-(4-fluorophenyl)ethyl]-2-({[({4-[(trifluoromethyl)oxy]phenyl}oxy)acetyl]amino}methyl)-1,3-oxazole-4-carboxamide] | 6.30 to 7.30
CC(C)C[C@@H](NC(=O)c1csc(CNC(=O)COc2ccc(OC(F)(F)F)cc2)n1)C(N)=O [Entry 202, N~2~-{[2-({[({4-[(trifluoromethyl)oxy]phenyl}oxy)acetyl]amino}methyl)-1,3-thiazol-4-yl]carbonyl}-D-leucinamide] | 6.30 to 7.30
COc1ccccc1CNC(=O)c1coc(CNC(=O)COc2ccc(OC(F)(F)F)cc2)n1 [Entry 203, N-{[2-(methyloxy)phenyl]methyl}-2-({[({4-[(trifluoromethyl)oxy]phenyl}oxy)acetyl]amino}methyl)-1,3-oxazole-4-carboxamide] | 6.30 to 7.30
CC(NC(=O)c1csc(CNC(=O)COc2ccc(OC(F)(F)F)cc2)n1)c1ccc(Br)cc1 (centres unmarked) [Entry 204, N-[1-(4-bromophenyl)ethyl]-2-({[({4-[(trifluoromethyl)oxy]phenyl}oxy)acetyl]amino}methyl)-1,3-thiazole-4-carboxamide] | 6.30 to 7.30
O=C(COc1ccc(OC(F)(F)F)cc1)NCc1nc(C(=O)NCc2ccc(F)cc2)cs1 [Entry 206, N-[(4-fluorophenyl)methyl]-2-({[({4-[(trifluoromethyl)oxy]phenyl}oxy)acetyl]amino}methyl)-1,3-thiazole-4-carboxamide] | 6.30 to 7.30
O=C(C/C=C/c1ccccc1)NCc1nc(C(=O)NCCc2cccc(Cl)c2)cs1 [Entry 208, N-[2-(3-chlorophenyl)ethyl]-2-({[(3E)-4-phenylbut-3-enoyl]amino}methyl)-1,3-thiazole-4-carboxamide] | 6.30 to 7.30

Next, values leading:

pIC50 | Structure (SMILES)
6.30 to 7.30 | C#CC1(NC(=O)c2csc(CNC(=O)COc3ccc(OC(F)(F)F)cc3)n2)CCCCC1 [Entry 180, N-(1-ethynylcyclohexyl)-2-({[({4-[(trifluoromethyl)oxy]phenyl}oxy)acetyl]amino}methyl)-1,3-thiazole-4-carboxamide]
6.30 to 7.30 | COc1ccc(CNC(=O)c2csc(CNC(=O)COc3ccc(OC(F)(F)F)cc3)n2)cc1OC [Entry 187, N-{[3,4-bis(methyloxy)phenyl]methyl}-2-({[({4-[(trifluoromethyl)oxy]phenyl}oxy)acetyl]amino}methyl)-1,3-thiazole-4-carboxamide]
6.30 to 7.30 | CC(C)CCCCCCNC(=O)c1csc(CNC(=O)COc2ccc(OC(F)(F)F)cc2)n1 [Entry 189, N-(7-methyloctyl)-2-({[({4-[(trifluoromethyl)oxy]phenyl}oxy)acetyl]amino}methyl)-1,3-thiazole-4-carboxamide]
6.30 to 7.30 | COc1ccccc1CNC(=O)c1csc(CNC(=O)Cc2ccc(C(C)C)cc2)n1 [Entry 192, 2-[({[4-(1-methylethyl)phenyl]acetyl}amino)methyl]-N-{[2-(methyloxy)phenyl]methyl}-1,3-thiazole-4-carboxamide]
6.30 to 7.30 | CC(C)(C)CC(C)(C)NC(=O)c1csc(CNC(=O)COc2ccc(OC(F)(F)F)cc2)n1 [Entry 196, N-(1,1,3,3-tetramethylbutyl)-2-({[({4-[(trifluoromethyl)oxy]phenyl}oxy)acetyl]amino}methyl)-1,3-thiazole-4-carboxamide]
6.30 to 7.30 | CC(C)C(C)NC(=O)c1csc(CNC(=O)COc2ccc(OC(F)(F)F)cc2)n1 (centres unmarked) [Entry 197, N-(1,2-dimethylpropyl)-2-({[({4-[(trifluoromethyl)oxy]phenyl}oxy)acetyl]amino}methyl)-1,3-thiazole-4-carboxamide]
6.30 to 7.30 | O=C(COc1ccc(OC(F)(F)F)cc1)NCc1nc(C(=O)NC2CCCc3ccccc32)cs1 (centres unmarked) [Entry 199, N-(1,2,3,4-tetrahydronaphthalen-1-yl)-2-({[({4-[(trifluoromethyl)oxy]phenyl}oxy)acetyl]amino}methyl)-1,3-thiazole-4-carboxamide]
6.30 to 7.30 | CCCCC(CC)CNC(=O)c1csc(CNC(=O)COc2ccc(OC(F)(F)F)cc2)n1 (centres unmarked) [Entry 200, N-(2-ethylhexyl)-2-({[({4-[(trifluoromethyl)oxy]phenyl}oxy)acetyl]amino}methyl)-1,3-thiazole-4-carboxamide]
6.30 to 7.30 | O=C(COc1ccc(OC(F)(F)F)cc1)NCc1nc(C(=O)NCCN2CCOCC2)cs1 [Entry 205, N-(2-morpholin-4-ylethyl)-2-({[({4-[(trifluoromethyl)oxy]phenyl}oxy)acetyl]amino}methyl)-1,3-thiazole-4-carboxamide]
6.30 to 7.30 | COc1cc(CCNC(=O)c2coc(CNC(=O)COc3ccc(OC(F)(F)F)cc3)n2)cc(OC)c1 [Entry 207, N-{2-[3,5-bis(methyloxy)phenyl]ethyl}-2-({[({4-[(trifluoromethyl)oxy]phenyl}oxy)acetyl]amino}methyl)-1,3-oxazole-4-carboxamide]
6.30 to 7.30 | O=C(COc1ccc(OC(F)(F)F)cc1)NCc1nc(C(=O)NC2CCCCC2)cs1 [Entry 209, N-cyclohexyl-2-({[({4-[(trifluoromethyl)oxy]phenyl}oxy)acetyl]amino}methyl)-1,3-thiazole-4-carboxamide]
6.30 to 7.30 | CCC(C)CNC(=O)c1csc(CNC(=O)COc2ccc(OC(F)(F)F)cc2)n1 (centres unmarked) [Entry 210, N-(2-methylbutyl)-2-({[({4-[(trifluoromethyl)oxy]phenyl}oxy)acetyl]amino}methyl)-1,3-thiazole-4-carboxamide]
